Measured values published in PMC7356589, “Hybrid Gold(I) NHC-Artemether Complexes to Target Falciparum Malaria Parasites” (Molecules, 2020).
Like-named read-outs stand apart in the source and are kept apart here.

Assays:
[1] = tested on: P. falciparum strain F32-TEM (F32-Tanzania); assay: In vitro antiplasmodial activity (SYBR Green fluorescence and [3H] hypoxanthine assays); type: cell-based, Plasmodium falciparum; details: strain F32-Tanzania (F32-TEM), mean of at least 4 experiments, SYBR Green and radioactivity assays, read-out: Antiplasmodial Activity on P. falciparum IC50 ± SEM
Description: In vitro antiplasmodial activities of the synthesized hybrid molecules were evaluated against the P. falciparum strain F32-TEM (corresponding to the parental strain F32-Tanzania). Each molecule was tested at least in three independent experiments (except Aubis(5-Bn), tested twice) by a SYBR Green Fluorescence assay but also at least once with the standard chemosensitivity assay recommended by the WHO and based on the incorporation of [^3H] hypoxanthine.
For the SYBR Green Fluorescence assay, ring stage parasites were treated with the drugs for 48 h. Then, the pellets were washed twice with PBS and frozen at −20 °C. Thawed plates were incubated for 2 h at room temperature with the SYBR Green (Thermo-Fisher, Illkirch, France) lysis buffer (20 mm Tris base pH 7.5, 5 mm EDTA, 0.008% w/v saponin, 0.08% w/v Triton X-100). The plates were then read using a fluorescence plate reader (FLx800, BioTek, Illkirch, France) at an excitation wavelength of 485 nm and 535 nm for the emission wavelength. The IC50 values (concentration inhibiting 50% of the parasite’s growth) were determined using GraphPad Prism software 7 (GraphPad Software, San Diego, CA, USA).
For [^3H] hypoxanthine assay, ring stage parasites were incubated with the drug dilutions for 24 h, then, [^3H] hypoxanthine (50 μL/0.25 μCi; Perkin-Elmer, Courtaboeuf, France) was added for another 24 h period. After that, plates were frozen at −20 °C. The next step is to thaw the plates and to collect the nucleic acids. Tritium incorporation was then determined thanks to a β-counter (Perkin-Elmer, Courtaboeuf, France).
The antiplasmodial activities reported in Table 1 correspond thus to the mean of IC50 values from at least 4 independent experiments acquired by the two methods, SYBR Green and radioactivity.

[2] = tested on: Vero cell line; assay: Cytotoxicity on Vero cells (MTT); type: cell-based, monkey; details: for IC50: Vero cells, 48 h, MTT, read-out: Cytotoxicity on Vero Cells IC50 ± SEM; for Selectivity Index Vero Cells/P. falciparum: cytotoxic/antiplasmodial activity ratio
Description: (§1) The cells were cultured in MEM medium (Dutscher, Brumath, France) supplemented with 10% fetal bovine serum (Dutscher), 0.7 mM glutamine and 100 μg/mL gentamicin. The cells were seeded at 10^4 cells per well in a 96-well plates and incubated during 24 h. Then, cells were incubated for additional 48 h with the drugs. […] Subsequently, DMSO was added to the wells containing the cells and MTT to dissolve the formed crystals. The plates were then read to determine the absorbance at wavelength of 540 nm (µQuant, BioTek, Illkirch, France). Cell proliferation was calculated from at least three independent experiments using GraphPad Prism software 7 (GraphPad Software, San Diego, CA, USA). The cytotoxic/antiplasmodial activity ratio corresponds to the selectivity index.

[3] = tested on: P. falciparum F32-ART (artemisinin-resistant); assay: Recrudescence assay after 48 h drug exposure, F32-ART; type: cell-based, Plasmodium falciparum; details: 48 h exposure
Description: (§2) The Plasmodium falciparum F32-ART and F32-TEM parasite lines, resistant and sensitive to artemisinins respectively, were cultured in vitro in type O human erythrocytes (Etablissement Français du sang (EFS), Toulouse, France), diluted to 2% hematocrit, in RPMI-1640 medium (GIBCO, Illkirch, France) and supplemented with 5% Human Serum AB (EFS, Toulouse, France) at 37 °C and 5% CO2 [33]. Every other day and before each experiment, P. falciparum F32-ART and F32-TEM parasites were synchronized at ring stage using 5% D-sorbitol solution [34].
(§3) P. falciparum strains F32-ART and F32-TEM, synchronized at ring stage parasites at 3% parasitemia and 2% hematocrit have undergone a 48 h-treatment with the drugs to be tested. The parasites were then washed with RPMI-1640 medium and re-cultivated in drug-free culture conditions with 10% human serum. The parasitemia was then monitored daily to determine the time required for each parasite culture to recover the initial parasitemia of 3%. If no parasites were seen up to 30 days, the parasites were considered as “not recrudescent” [9, 15]. The drug doses were chosen in order to discriminate the phenotype response between the artemisinin-resistant and the -sensitive strains. A range from 1-fold to >100-fold the antiplasmodial IC50 value previously found has been tested to determine the most appropriate drug dose to use in this recrudescence assay.

[4] = tested on: P. falciparum F32-TEM (artemisinin-sensitive); assay: Recrudescence assay after 48 h drug exposure, F32-TEM; type: cell-based, Plasmodium falciparum; details: 48 h exposure
Description: as §2, §3

[5] = tested on: P. falciparum F32-ART and F32-TEM strains; assay: Recrudescence assay, comparison of F32-TEM and F32-ART (cross-resistance with artemisinin); type: cell-based, Plasmodium falciparum; details: for Mean ± SEM Difference of Recrudescence Days between F32-TEM and F32-ART: 48 h exposure; for Cross-resistance with artemisinin (result in words): recrudescence assay, F32-ART vs F32-TEM
Description: Three hybrid molecules with the best selectivity indexes in each series, i.e., Aubis(3-Me) (14), Aubis(4-Me) (19) and Aubis(5-Me) (23), were evaluated in vitro for their efficacy in a context of resistance to artemisinins. For that, the comparison of the recovery capacity between the strain F32-ART, artemisinin-resistant, and its twin artemisinin-sensitive F32-TEM was evaluated after 48 h-treatment with the molecule to be tested via the recrudescence assay. When ring-stage resistant parasites are exposed to artemisinin, most of them die, but a small sub-set of parasites is able to escape the treatment by a cell cycle arrest, called quiescence mechanism. This phenomenon is characterized by a halt of DNA synthesis, which explains the very low IC50 values obtained with all artemisinins even for the artemisinin-resistant strain F32-ART [9, 15, 30]. Therefore, the standard in vitro chemosensitivity assay, based on the measurement of DNA levels to estimate the inhibition of the parasite proliferation, is irrelevant to study the resistance to artemisinins and evaluate possible cross-resistances.
as §3

[6] = Cytotoxicity on Vero cells (MTT); type: cell-based, monkey; details: monkey; Vero cells, 48 h, MTT; read-out: Cytotoxicity on Vero Cells IC50 ± SEM
Description: as §1

[7] = Plasmodium falciparum, F32, 48 h

SMILES | IC50 ([1]; 48 h) [nM] | IC50 [2] [nM] | Median (range) Recrudescence Days, F32-ART ([3]; dose 500 nM) | Median (range) Recrudescence Days, F32-TEM ([4]; dose 500 nM) | Mean ± SEM Difference of Recrudescence Days between F32-TEM and F32-ART ([5]; dose 500 nM) [days] | Cross-resistance with artemisinin (result in words) [5] | IC50 [1, 7] [nM] | IC50 at 48 h [6] [µM] | Selectivity Index Vero Cells/P. falciparum [2] | further results
C[C@@H]1CCC2[C@@H](C)[C@@H](OCCCCn3cc[n+](C)[c]3[Au-][c]3n(CCCCO[C@H]4O[C@@H]5O[C@@]6(C)CCC7[C@H](C)CCC([C@H]4C)[C@]75OO6)cc[n+]3C)O[C@@H]3O[C@@]4(C)CCC1[C@@]23OO4.[Cl-] (stereo partly drawn) [Aubis(4-Me)] | 13 ± 3 | 800 | 12.5 (11–14) days | >30 days | >17.5 ± 1.5 | cross-resistance | – | – | – | Median (range) Recrudescence Days, F32-ART ([3]; dose 100 nM): 5 days; Median (range) Recrudescence Days, F32-ART ([3]; dose 1 µM): 16 days; Median (range) Recrudescence Days, F32-TEM ([4]; dose 100 nM): 6 days; Median (range) Recrudescence Days, F32-TEM ([4]; dose 1 µM): 30 days; Mean ± SEM Difference of Recrudescence Days between F32-TEM and F32-ART ([5]; dose 100 nM): 1 days; Mean ± SEM Difference of Recrudescence Days between F32-TEM and F32-ART ([5]; dose 1 µM): 14 days
C[C@@H]1CCC2[C@@H](C)[C@@H](OCCCBr)O[C@@H]3O[C@@]4(C)CCC1[C@@]23OO4 (stereo partly drawn) [DHA-C3, 10β-(20-Bromopropoxy)dihydroartemisinin] | – | – | – | – | – | – | 8.5 ± 3 | 2.5 | 294 | –
C[C@@H]1CC[C@H]2[C@@H](C)C(=O)O[C@@H]3O[C@@]4(C)CC[C@@H]1[C@]32OO4 [Artemisinin, reference compound] | – | – | – | – | – | – | 18 ± 2 | 130 | 7 000 | Median (range) Recrudescence Days, F32-ART ([3]; dose 18 µM): 9.5 (6–17) days; Median (range) Recrudescence Days, F32-TEM ([4]; dose 18 µM): 18.5 (17–>30) days; Mean ± SEM Difference of Recrudescence Days between F32-TEM and F32-ART ([5]; dose 18 µM): 9.7 ± 0.3 days; Mean ± SEM Difference of Recrudescence Days between F32-TEM and F32-ART ([5]; dose 18 µM, listed as artemisinin): 9.7 days
C[C@@H]1CCC2[C@@H](C)[C@@H](OCCCCCn3cc[n+](C)[c]3[Au-][c]3n(CCCCCO[C@H]4O[C@@H]5O[C@@]6(C)CCC7[C@H](C)CCC([C@H]4C)[C@]75OO6)cc[n+]3C)O[C@@H]3O[C@@]4(C)CCC1[C@@]23OO4.[Cl-] (stereo partly drawn) [Aubis(5-Me)] | 9 ± 0.9 | 1000 | 9.5 (8–11) days | >25.5 (21–>30) days | >16 | cross-resistance | – | – | – | Median (range) Recrudescence Days, F32-ART ([3]; dose 100 nM): 6 days; Median (range) Recrudescence Days, F32-ART ([3]; dose 1 µM): 9 days; Median (range) Recrudescence Days, F32-TEM ([4]; dose 100 nM): 15 days; Median (range) Recrudescence Days, F32-TEM ([4]; dose 1 µM): 30 days; Mean ± SEM Difference of Recrudescence Days between F32-TEM and F32-ART ([5]; dose 100 nM): 9 days; Mean ± SEM Difference of Recrudescence Days between F32-TEM and F32-ART ([5]; dose 1 µM): 21 days
C[C@@H]1CCC2[C@@H](C)[C@@H](OCCCCCn3cc[n+](Cc4ccccc4)c3)O[C@@H]3O[C@@]4(C)CCC1[C@@]23OO4 (stereo partly drawn) [L5-Bn, 3′-Benzyl-1′-[10β-(22-pentoxy)dihydroartemisinin]1H-imidazol-3-ium bromide] | 98 ± 26 | – | – | – | – | – | < 100 | 1 | 10 | –
Cc1cc(C)c(-[n+]2ccn(CCCCCO[C@H]3O[C@@H]4O[C@@]5(C)CCC6[C@H](C)CCC([C@H]3C)[C@]64OO5)c2)c(C)c1 (stereo partly drawn) [L5-Mes, 3′-Mesityl-1′-[10β-(22-pentoxy)dihydroartemisinin]1H-imidazol-3-ium bromide] | 98 ± 24 | – | – | – | – | – | < 100 | 25 | 255 | –
C[C@@H]1CCC2[C@@H](C)[C@@H](OCCCn3cc[n+](C)[c]3[Au-][c]3n(CCCO[C@H]4O[C@@H]5O[C@@]6(C)CCC7[C@H](C)CCC([C@H]4C)[C@]75OO6)cc[n+]3C)O[C@@H]3O[C@@]4(C)CCC1[C@@]23OO4.O=[N+]([O-])[O-] (stereo partly drawn) [Aubis(3-Me)] | 35 ± 8 | 5000 | 8 days | 24 days | 16 | cross-resistance | – | – | – | Median (range) Recrudescence Days, F32-ART ([3]; dose 200 nM): 7 (7–13) days; Median (range) Recrudescence Days, F32-TEM ([4]; dose 200 nM): 14 (11–16) days; Mean ± SEM Difference of Recrudescence Days between F32-TEM and F32-ART ([5]; dose 200 nM): 4.6 ± 1.2 days
